Our source for the EC50 and ΔTm values is ChEMBL document CHEMBL5528076, “Development of Selective Pyrido[2,3-d]pyrimidin-7(8H)-one-Based Mammalian STE20-Like (MST3/4) Kinase Inhibitors” (J Med Chem, 2024).

As usually defined, the EC50 is the concentration needed to bring the measured effect to its halfway point. Read a high EC50 as lower potency in that assay. Broadly, the ΔTm is the change in melting temperature against a reference sample.

Assay [1] concerns the target T1, Serine/threonine-protein kinase 4 (Homo sapiens, UniProt Q13043).
T1 sequence (Q13043 whole entry): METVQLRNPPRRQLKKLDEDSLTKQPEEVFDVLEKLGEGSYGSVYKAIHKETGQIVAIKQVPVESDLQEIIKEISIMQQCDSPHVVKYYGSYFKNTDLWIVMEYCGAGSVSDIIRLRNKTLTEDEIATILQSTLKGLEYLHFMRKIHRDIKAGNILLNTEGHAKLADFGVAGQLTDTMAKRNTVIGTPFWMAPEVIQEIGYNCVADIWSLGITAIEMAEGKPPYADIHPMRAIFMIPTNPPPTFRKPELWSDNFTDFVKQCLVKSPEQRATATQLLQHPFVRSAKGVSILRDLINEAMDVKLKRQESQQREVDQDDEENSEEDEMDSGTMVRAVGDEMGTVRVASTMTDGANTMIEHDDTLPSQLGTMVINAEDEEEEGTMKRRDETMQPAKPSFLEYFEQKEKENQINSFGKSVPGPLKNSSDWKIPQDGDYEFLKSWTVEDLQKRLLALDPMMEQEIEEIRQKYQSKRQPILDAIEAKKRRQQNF
Nature of the assay: Inhibition of MST1 (unknown origin) expressed in HEK293T cells using NanoGlo as substrate incubated for 20 hrs by NanoBRET assay. The class given is cell-based. Background: In BRET a luciferase serves as donor, and the signal depends on an acceptor being close.

In assay [2] the target is T2, Serine/threonine-protein kinase 24 (Homo sapiens, UniProt Q9Y6E0). As to the kind of experiment: Binding affinity to recombinant MST3 (unknown origin) assessed as change in melting temperature by DSF analysis.
Target sequence in this assay (Q9Y6E0 whole entry, looked up): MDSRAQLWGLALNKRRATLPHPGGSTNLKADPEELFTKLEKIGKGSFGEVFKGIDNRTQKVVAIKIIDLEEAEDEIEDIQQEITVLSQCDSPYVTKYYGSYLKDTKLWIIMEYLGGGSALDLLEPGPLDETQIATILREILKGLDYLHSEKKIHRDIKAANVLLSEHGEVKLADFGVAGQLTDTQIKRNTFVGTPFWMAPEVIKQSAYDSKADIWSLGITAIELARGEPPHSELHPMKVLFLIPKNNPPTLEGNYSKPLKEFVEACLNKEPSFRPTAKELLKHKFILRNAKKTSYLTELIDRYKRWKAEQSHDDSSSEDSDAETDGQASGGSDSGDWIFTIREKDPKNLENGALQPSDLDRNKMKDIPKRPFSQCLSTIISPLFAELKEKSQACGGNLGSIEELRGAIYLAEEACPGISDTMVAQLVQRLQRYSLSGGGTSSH
The target of assay [3] is T3, Serine/threonine-protein kinase 3 (Homo sapiens, UniProt Q13188).
T3 sequence (Q13188 whole entry): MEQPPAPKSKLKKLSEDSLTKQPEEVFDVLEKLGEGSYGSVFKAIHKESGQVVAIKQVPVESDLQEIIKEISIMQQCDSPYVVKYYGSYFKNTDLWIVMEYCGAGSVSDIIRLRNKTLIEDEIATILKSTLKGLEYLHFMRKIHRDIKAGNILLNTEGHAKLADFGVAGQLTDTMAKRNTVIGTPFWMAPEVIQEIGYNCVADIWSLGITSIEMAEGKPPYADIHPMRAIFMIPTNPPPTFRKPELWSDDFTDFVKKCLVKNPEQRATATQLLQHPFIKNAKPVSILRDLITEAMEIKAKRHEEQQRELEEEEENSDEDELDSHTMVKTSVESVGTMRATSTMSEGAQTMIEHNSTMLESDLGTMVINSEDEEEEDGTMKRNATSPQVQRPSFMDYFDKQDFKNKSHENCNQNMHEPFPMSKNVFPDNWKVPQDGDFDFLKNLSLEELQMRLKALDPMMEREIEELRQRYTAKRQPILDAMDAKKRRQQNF
Nature of the assay: Inhibition of MST2 (unknown origin) expressed in HEK293T cells using NanoGlo as substrate incubated for 20 hrs by NanoBRET assay. The class given is cell-based.

Assay [4] concerns the target T2, Serine/threonine-protein kinase 24. As to the kind of experiment: Inhibition of MST3 (unknown origin) expressed in lysed HEK293T cells using NanoGlo as substrate incubated for 20 hrs by NanoBRET assay. In kind it is cell-based.
Target sequence in this assay (Q9Y6E0 whole entry): as the sequence (Q9Y6E0 whole entry, looked up) above
Assay [5] addresses T4, Serine/threonine-protein kinase 3 (Homo sapiens) (UniProt Q13188).
T4 sequence (whole entry): T3 sequence (Q13188 whole entry)
Nature of the assay: Binding affinity to recombinant MST2 (unknown origin) assessed as change in melting temperature by DSF analysis. (Differential scanning fluorimetry follows unfolding on heating by fluorescence.)

In assay [6] the target is T5, Serine/threonine-protein kinase 26 (Homo sapiens, UniProt Q9P289). As to the kind of experiment: Binding affinity to recombinant MST4 (unknown origin) assessed as change in melting temperature by DSF analysis.
Target sequence in this assay (Q9P289 2-416 limits assumed): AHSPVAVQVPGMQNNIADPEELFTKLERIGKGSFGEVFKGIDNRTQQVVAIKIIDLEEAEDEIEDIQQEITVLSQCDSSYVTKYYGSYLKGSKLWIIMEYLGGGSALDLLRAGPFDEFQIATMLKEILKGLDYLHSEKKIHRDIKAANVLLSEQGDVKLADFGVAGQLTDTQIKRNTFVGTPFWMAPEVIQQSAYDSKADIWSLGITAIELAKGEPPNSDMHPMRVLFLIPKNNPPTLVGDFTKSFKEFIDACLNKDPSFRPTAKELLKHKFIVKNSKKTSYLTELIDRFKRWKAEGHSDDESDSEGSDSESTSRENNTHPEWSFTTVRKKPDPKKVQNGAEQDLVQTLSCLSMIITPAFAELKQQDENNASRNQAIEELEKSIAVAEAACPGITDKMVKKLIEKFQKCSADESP
Assay [7] has as its target Serine/threonine-protein kinase PAK 1 (Homo sapiens) (UniProt Q13153). Nature of the assay: Binding affinity to recombinant PAK1 (unknown origin) assessed as change in melting temperature by DSF analysis.
In assay [8] the target is Serine/threonine-protein kinase SIK2 (Homo sapiens, UniProt Q9H0K1). Nature of the assay: Inhibition of SIK2 (unknown origin) expressed in HEK293T cells using NanoGlo as substrate incubated for 20 hrs by NanoBRET assay. In kind it is cell-based.
Chain of Serine/threonine-protein kinase SIK2 (Q9H0K1 whole entry): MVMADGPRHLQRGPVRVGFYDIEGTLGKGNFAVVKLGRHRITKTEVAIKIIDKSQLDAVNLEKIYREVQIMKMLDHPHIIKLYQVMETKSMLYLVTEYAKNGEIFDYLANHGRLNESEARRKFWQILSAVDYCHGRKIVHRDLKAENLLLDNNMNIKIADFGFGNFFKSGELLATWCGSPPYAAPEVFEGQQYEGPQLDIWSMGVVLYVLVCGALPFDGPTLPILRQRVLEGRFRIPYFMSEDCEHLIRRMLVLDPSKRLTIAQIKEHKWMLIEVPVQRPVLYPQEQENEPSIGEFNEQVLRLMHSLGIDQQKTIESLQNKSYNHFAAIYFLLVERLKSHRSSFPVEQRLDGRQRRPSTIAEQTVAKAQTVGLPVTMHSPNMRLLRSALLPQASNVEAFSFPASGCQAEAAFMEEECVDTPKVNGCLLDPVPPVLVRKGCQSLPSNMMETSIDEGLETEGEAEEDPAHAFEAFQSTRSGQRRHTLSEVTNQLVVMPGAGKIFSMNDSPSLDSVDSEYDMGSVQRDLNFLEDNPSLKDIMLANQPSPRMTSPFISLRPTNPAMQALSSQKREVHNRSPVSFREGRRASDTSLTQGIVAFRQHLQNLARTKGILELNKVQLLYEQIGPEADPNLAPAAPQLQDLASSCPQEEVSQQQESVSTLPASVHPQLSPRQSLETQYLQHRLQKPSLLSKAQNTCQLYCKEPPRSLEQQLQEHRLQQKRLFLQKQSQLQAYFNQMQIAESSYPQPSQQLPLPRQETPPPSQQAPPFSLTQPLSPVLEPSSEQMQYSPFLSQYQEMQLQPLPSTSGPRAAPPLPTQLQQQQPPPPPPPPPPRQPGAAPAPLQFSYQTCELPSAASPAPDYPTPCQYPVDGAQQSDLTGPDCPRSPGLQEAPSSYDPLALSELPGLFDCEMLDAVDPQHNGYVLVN
For assay [9], the target named is T5, Serine/threonine-protein kinase 26. Nature of the assay: Inhibition of MST4 (unknown origin) expressed in HEK293T cells using NanoGlo as substrate incubated for 20 hrs by NanoBRET assay. In kind it is cell-based.
Target sequence in this assay (Q9P289 whole entry): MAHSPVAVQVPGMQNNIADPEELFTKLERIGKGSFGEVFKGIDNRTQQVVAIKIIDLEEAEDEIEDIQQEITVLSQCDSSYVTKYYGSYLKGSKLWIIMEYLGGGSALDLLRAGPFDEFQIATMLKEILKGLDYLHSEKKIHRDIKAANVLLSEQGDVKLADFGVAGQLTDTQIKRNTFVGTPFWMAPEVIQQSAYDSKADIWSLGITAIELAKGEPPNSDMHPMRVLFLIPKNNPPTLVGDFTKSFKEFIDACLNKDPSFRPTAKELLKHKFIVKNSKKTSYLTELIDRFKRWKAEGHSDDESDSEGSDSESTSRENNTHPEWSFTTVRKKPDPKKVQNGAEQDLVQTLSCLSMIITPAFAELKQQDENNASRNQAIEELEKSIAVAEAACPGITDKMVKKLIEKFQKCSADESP
The target in assay [10] is T6, Serine/threonine-protein kinase 4 (Homo sapiens) (UniProt Q13043).
T6 sequence (whole entry): T1 sequence (Q13043 whole entry)
Nature of the assay: Binding affinity to recombinant MST1 (unknown origin) assessed as change in melting temperature by DSF analysis.

The target of assay [11] is T2, Serine/threonine-protein kinase 24. Nature of the assay: Inhibition of MST3 (unknown origin) expressed in HEK293T cells using NanoGlo as substrate incubated for 20 hrs by NanoBRET assay. The class given is cell-based.
Target sequence in this assay (Q9Y6E0 whole entry): as the sequence (Q9Y6E0 whole entry, looked up) above

The structures appear in SMILES notation. Bounds are passed on as bounds.

Chain of Serine/threonine-protein kinase PAK 1 (Homo sapiens) (Q13153 whole entry): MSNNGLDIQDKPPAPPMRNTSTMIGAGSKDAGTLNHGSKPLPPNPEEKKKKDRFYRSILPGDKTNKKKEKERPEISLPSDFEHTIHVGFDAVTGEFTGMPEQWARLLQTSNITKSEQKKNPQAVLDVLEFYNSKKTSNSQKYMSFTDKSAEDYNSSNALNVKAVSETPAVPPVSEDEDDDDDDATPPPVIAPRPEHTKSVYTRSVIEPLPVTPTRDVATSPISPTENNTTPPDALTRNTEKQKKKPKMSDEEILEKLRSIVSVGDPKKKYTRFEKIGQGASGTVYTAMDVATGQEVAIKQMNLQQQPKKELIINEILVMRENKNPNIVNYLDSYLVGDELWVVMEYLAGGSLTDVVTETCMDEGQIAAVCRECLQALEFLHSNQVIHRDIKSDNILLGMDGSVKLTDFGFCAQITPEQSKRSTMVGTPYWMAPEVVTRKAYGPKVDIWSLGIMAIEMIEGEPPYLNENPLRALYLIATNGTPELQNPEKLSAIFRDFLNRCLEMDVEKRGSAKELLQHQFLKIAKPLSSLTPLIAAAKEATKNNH

Consider `COc1cc(N2CCN(C)CC2)ccc1Nc1ncc2cc(-c3ccc(-c4cccc(C)n4)cc3Cl)c(=O)n(CCCCN)c2n1`, for which the EC50 in [1] was greater than 50 µM; in [3], 16.9 µM; in [4], 0.278 µM; in assay [8], 0.153 µM; in assay [9], 38.3 µM. Moreover, the ΔTm in assay [2] was found to be 13.5 °C; in assay [5], 7.4 °C; in assay [6], 6.7 °C; in [7], 8.8 °C; in assay [10] it was 4 °C.

`CNc1ncc2cc(-c3ccc(-c4cccc(C)n4)cc3Cl)c(=O)n(CCCCCN)c2n1`: the EC50 stood at 2.5 µM in [1]; 2.5 µM in assay [3]; 0.061 µM in assay [8]; 2.1 µM in assay [9]; 0.092 µM in [11]. In addition, the ΔTm came out at 9.2 °C in assay [2]; 10.7 °C in assay [5]; 7.1 °C in assay [6]; 6.3 °C in assay [7]; 5.2 °C in [10].

For `CNc1ncc2cc(-c3ccc(-c4cccc(C)n4)cc3Cl)c(=O)n(CCCCO)c2n1`, the EC50 in assay [1] was 3.4 µM; in [3] it was 3.6 µM; in assay [8], 0.138 µM; in assay [9], 4 µM; in [11], 0.244 µM. Further, the ΔTm stood at 5.7 °C in assay [2]; 7.1 °C in assay [5]; 5 °C in assay [6]; 5 °C in [7]; 3.8 °C in assay [10].

Take `CNc1ncc2cc(-c3ccc(-c4cccc(C)n4)cc3Cl)c(=O)n(CCOC)c2n1`: the EC50 in assay [1] was 31.4 µM; in [3], 28.5 µM; in assay [8], 2.5 µM; in assay [9] it was 13 µM; in assay [11], 0.42 µM. Besides, the ΔTm in assay [2] was determined as 6.7 °C; in [5], 5 °C; in assay [6] it was 4.4 °C; in [7], 4.1 °C; in assay [10] it was 3.9 °C.

With `Cc1cccc(-c2ccc(-c3cc4cnc(Nc5ccc(O)cc5)nc4n(CCCCN)c3=O)c(Cl)c2)n1`, the EC50 in assay [1] stood at 0.419 µM; in assay [3], 0.369 µM; in [4], 0.023 µM; in assay [8], 0.062 µM; in assay [9] it was 0.044 µM. For the same molecule, the ΔTm in assay [2] worked out at 17.1 °C; in assay [5], 13.7 °C; in assay [6], 15 °C; in [7] it was 9.2 °C; in [10], 8 °C.

As to `CNc1ncc2cc(-c3ccc(-c4cccc(C)n4)cc3Cl)c(=O)n(CCN)c2n1`, the EC50 in [1] is greater than 50 µM; in [3], 13.7 µM; in assay [8], 1.4 µM; in assay [9] it was 14.8 µM; in [11], 1.2 µM. The ΔTm in assay [2] was 5.5 °C; in assay [5] it was 1.6 °C; in assay [6], 3.3 °C; in [7], 1.3 °C; in assay [10], 1.6 °C.

`CNc1ncc2cc(-c3ccc(-c4cccc(C)n4)cc3Cl)c(=O)n(C)c2n1`: the EC50 in assay [1] was 12.8 µM; in assay [3] it was 7.6 µM; in assay [8] it was 3.2 µM; in assay [9], 4.6 µM; in assay [11], 0.775 µM. Further, the ΔTm in assay [2] was 3.7 °C; in [5], 1.3 °C; in assay [6], 1.6 °C; in assay [7] it was 3.2 °C; in assay [10], 1.6 °C.

`CNc1ncc2cc(-c3ccc(-c4cccc(C)n4)cc3Cl)c(=O)n(C[C@H]3CC[C@H](N)CC3)c2n1`: the EC50 in assay [1] came out at 0.66 µM; in [3] it was 0.552 µM; in [8], 0.016 µM; in assay [9], 0.5 µM; in assay [11], 0.048 µM. In addition, the shift in melting temperature (ΔTm) in assay [2] was 10.8 °C; in [5], 10.8 °C; in assay [6], 8.2 °C; in [7] it was 8.4 °C; in assay [10], 7.9 °C.

On to `CNc1ncc2cc(-c3ccc(-c4cccc(C)n4)cc3Cl)c(=O)n(CCCCOC)c2n1`, for which the half-maximal effective concentration (EC50) in [1] came to 5.3 µM; in assay [3], 4.6 µM; in assay [8], 1.3 µM; in assay [9], 5.5 µM; in assay [11], 0.614 µM. Besides, the ΔTm in assay [2] was 6.2 °C; in assay [5], 8.6 °C; in assay [6] it was 3.6 °C; in assay [7], 4.8 °C; in assay [10], 3.3 °C.

In the case of `CNc1ncc2cc(-c3ccc(-c4cccc(C)n4)cc3Cl)c(=O)n(CCCOC)c2n1`, the EC50 in [1] came out at 9.2 µM; in [3] it was 9.3 µM; in [8], 1.7 µM; in [9], 7.6 µM; in [11] it was 0.594 µM. Moreover, the ΔTm in assay [2] is 5.1 °C; in assay [5], 6.2 °C; in [6], 4.1 °C; in assay [7], 5.1 °C; in assay [10], 3.6 °C.

On to `CNc1ncc2cc(-c3ccc(-c4cccc(C)n4)cc3Cl)c(=O)n(CCCO)c2n1`, for which the EC50 in [1] turned out to be 6.7 µM; in assay [3], 6 µM; in assay [8], 0.505 µM; in assay [9], 4.5 µM; in assay [11], 0.382 µM. Besides, the ΔTm in assay [2] was found to be 6.2 °C; in [5], 6.3 °C; in assay [6], 5 °C; in assay [7], 4.5 °C; in assay [10], 3.4 °C.

In the case of `CNc1ncc2cc(-c3ccc(-c4cccc(C)n4)cc3Cl)c(=O)[nH]c2n1`, the shift in melting temperature (ΔTm) was found to be 0.6 °C in assay [2]; 0.3 °C in assay [5]; 0 °C in assay [6]; 0 °C in assay [7]; 0 °C in assay [10]. Moreover, the EC50 in assay [8] is 1.6 µM.

Take `CNc1ncc2cc(-c3ccc(-c4cccc(C)n4)cc3Cl)c(=O)n(C[C@H]3OC[C@H](N)CO3)c2n1`: the EC50 in assay [1] stood at 30.4 µM; in assay [3], 4.6 µM.

As for `CNc1ncc2cc(-c3ccc(-c4cccc(C)n4)cc3Cl)c(=O)n(CCC3CCNCC3)c2n1`, the EC50 was found to be 1.6 µM in assay [1]; 1.8 µM in assay [3]; 0.078 µM in assay [8]; 0.8 µM in [9]; 0.06 µM in assay [11]. For the same molecule, the ΔTm in assay [5] worked out at 8 °C; in [6], 7.8 °C; in assay [7] it was 8.6 °C; in assay [10] it was 6 °C.

`CNc1ncc2cc(-c3ccc(-c4cccc(C)n4)cc3Cl)c(=O)n(CCCCCO)c2n1`: the EC50 in [1] was found to be 3 µM; in [3], 2.8 µM; in assay [8], 0.266 µM; in assay [9] it was 2.2 µM; in assay [11], 0.316 µM. Also, the ΔTm came to 6.6 °C in assay [2]; 6.1 °C in assay [5]; 5.5 °C in assay [6]; 6 °C in assay [7]; 2.4 °C in [10].

In the case of `CNc1ncc2cc(-c3ccc(-c4cccc(C)n4)cc3Cl)c(=O)n(CCO)c2n1`, the EC50 turned out to be 7.7 µM in assay [1]; 4.4 µM in [3]; 0.871 µM in assay [8]; 3.6 µM in [9]; 0.288 µM in [11]. The ΔTm stood at 9 °C in [5], 5.8 °C in assay [6], 5 °C in assay [7] and 4 °C in [10].

In the case of `CNc1ncc2cc(-c3ccc(-c4cccc(C)n4)cc3Cl)c(=O)n(CCCN)c2n1`, the EC50 in assay [1] was 26.3 µM; in assay [3], 19.8 µM; in [8] it was 0.162 µM; in [9] it was 4.3 µM; in [11], 0.251 µM. Moreover, the ΔTm in [2] is 7.9 °C; in assay [5], 4.4 °C; in [6], 7.2 °C; in assay [7], 4 °C; in [10] it was 2.8 °C.
